Columns and labels:
[1] = target: T1, Avidin from Gallus gallus egg white, Avi-pCBMA conjugate by PARIS (Gallus gallus, UniProt P02701); assay: Binding affinity of HABA to Avi-pCBMA conjugate, PARIS; conditions: 300 μM HABA
T1 construct: purchased Lee Biosolutions (Maryland Heights, Mo.); host or cells: Gallus gallus egg white
Method: (§1) α-Chymotrypsin (CT) from bovine pancreas (type II), lysozyme from chicken egg white, acetylcholinesterase from Electrophorus electricus (electric eel, type VI-S), uricase from porcine liver (type V), and agarase from Pseudomonas atlantica were purchased from Sigma Aldrich (St Louis, Mo.). Avidin from Gallus gallus egg white was purchased from Lee Biosolutions (Maryland Heights, Mo.). Protein surface active ATRP initiator (NHS-ATRP initiator) was prepared as described elsewhere (Murata et al., supra).
(§2) Absorption at 500 nm of 300 μM HABA solution in phosphate buffered saline without calcium or magnesium (986 μL, Lonza) was measured using UV-VIS spectrometer. 16 μL, of the conjugates solution (1.25 μM of avidin in deionized water) was added to the HABA solution and incubated at room temperature for 1 minute, and then absorption at 500 nm was measured. Change in absorbance at 500 nm was used to determine bound HABA to the conjugate.

[2] = target: Avidin from Gallus gallus egg white, Avi-pCBMA conjugate by solution synthesis (Gallus gallus, UniProt P02701); assay: Binding affinity of HABA to Avi-pCBMA conjugate, solution; conditions: 300 μM HABA, 1 minute, room temperature, [Avi]0 = 2 μM, ε500 = 34000 M^−1
Method: as §1, §2

[3] = test system: C[C@H](NC(=O)CCC(=O)O)C(=O)N[C@@H](C)C(=O)N1CCC[C@H]1C(=O)N[C@@H](Cc1ccccc1)C(=O)Nc1ccc([N+](=O)[O-])cc1; assay: purified protein, by the assay type; conditions: other: native CT, pH 8, 25° C.
Method: Suc-AAPF-pNA (0-125 μL of 9.60 mM in DMSO) was mixed with sodium phosphate buffer (865-950 μL of 100 mM buffer, pH 8). Native CT or conjugate solutions (10 μL, 3.9 μM of CT) was added to the substrate solution. The initial substrate hydrolysis rate was monitored by recording the increase in absorbance at 412 nm using a UV-VIS absorbance spectrometer with a temperature-controlled cell holder at 25° C. Michaelis-Menten parameters were determined by nonlinear curve fitting of initial rate versus substrate concentration plots using Enzfitter software.

[4] = target: T2, acetylcholinesterase (AChE) from Electrophorus electricus (electric eel, type VI-S), AChE-pCBMA conjugate by PARIS (Electrophorus electricus, UniProt O42275); assay: Michaelis-Menten kinetics of AChE-catalyzed hydrolysis of acetylthiocholine iodide, PARIS conjugate; assay type: biochemical; conditions: pH 7.4, 37° C.
T2 construct: purchased Sigma Aldrich (St Louis, Mo.); host or cells: Electrophorus electricus (electric eel)
Method: as §1
Acetylthiocholine iodide (0-100 μL of 10 mM in 100 mM sodium phosphate buffer (pH 7.4)) and 10 μL of DTNB solution (50 mM in DMSO) were mixed with 100 mM sodium phosphate buffer (980-880 μL, pH 7.4). Conjugate solution (10 μL, 5.5 μM of AChE) was added to the substrate solution. The initial substrate hydrolysis rate was monitored by recording the increase in absorbance at 412 nm using a UV-VIS absorbance spectrometer with a temperature-controlled cell holder at 37° C. Michaelis-Menten parameters were determined by nonlinear curve fitting of initial rate versus substrate concentration plots using Enzfitter software.

T1 sequence (P02701 25-152): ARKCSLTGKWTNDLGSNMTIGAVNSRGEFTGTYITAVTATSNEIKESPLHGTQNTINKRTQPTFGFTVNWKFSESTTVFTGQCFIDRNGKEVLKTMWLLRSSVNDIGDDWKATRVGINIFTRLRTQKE
T2 sequence (O42275 24-633): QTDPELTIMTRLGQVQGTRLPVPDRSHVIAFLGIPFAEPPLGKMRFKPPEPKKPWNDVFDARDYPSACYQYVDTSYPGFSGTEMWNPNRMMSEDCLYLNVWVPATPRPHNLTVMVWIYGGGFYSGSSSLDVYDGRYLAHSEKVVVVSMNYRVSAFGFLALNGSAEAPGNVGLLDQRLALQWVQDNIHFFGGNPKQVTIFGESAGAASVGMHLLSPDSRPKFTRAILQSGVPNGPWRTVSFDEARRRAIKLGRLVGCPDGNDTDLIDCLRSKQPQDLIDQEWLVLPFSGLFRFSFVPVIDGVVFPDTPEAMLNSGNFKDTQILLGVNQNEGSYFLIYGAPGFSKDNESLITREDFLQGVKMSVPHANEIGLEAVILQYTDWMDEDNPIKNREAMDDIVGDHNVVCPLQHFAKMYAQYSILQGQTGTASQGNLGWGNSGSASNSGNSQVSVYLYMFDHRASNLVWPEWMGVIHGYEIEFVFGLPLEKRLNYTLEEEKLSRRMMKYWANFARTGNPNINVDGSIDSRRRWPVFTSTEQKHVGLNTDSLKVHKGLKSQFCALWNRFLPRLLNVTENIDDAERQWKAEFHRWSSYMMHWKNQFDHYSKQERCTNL
Chain of Avidin from Gallus gallus egg white, Avi-pCBMA conjugate by solution synthesis (P02701 25-152): as the sequence (P02701 25-152) above

## O=C(O)c1ccccc1/N=N/c1ccc(O)cc1 [HABA, 4′-hydroxyazobenzene-2-carboxylic acid]
[1]; Avi-pCBMA, PARIS:solution
  Ratio of binding affinity of HABA (PARIS:solution): 1.01 ± 0.14
[1]; PARIS Avi-pCBMA, 1 minute, room temperature, [Avi]0 = 2 μM, ε500 = 34000 M^−1
  Bound HABA: 0.93 ± 0.13 µM
[2]
  Bound HABA: 0.92 ± 0.04 µM

## α-Chymotrypsin (CT) from bovine pancreas (type II), native (Bos taurus)
[3]
  Km: 80.3 ± 13.1 µM
  kcat: 34.6 ± 1.4 s⁻¹
  kcat/Km: 431000 ± 72000 M⁻¹ s⁻¹

## CC(=O)SCC[N+](C)(C)C.[I-] [acetylthiocholine iodide, Acetylthiocholine iodide]
[4]
  Ratio of enzymatic efficiency (PARIS:solution): 1.09 ± 0.08

From patent US20200369716A1, “SOLID-PHASE SYNTHESIS OF PROTEIN-POLYMER CONJUGATES ON IMMOBILIZATION SUPPORTS” (Carnegie Mellon University, priority 2017, published 2020)
